Measurements from ChEMBL document CHEMBL4622963, “Optimization of Nicotinamides as Potent and Selective IRAK4 Inhibitors with Efficacy in a Murine Model of Psoriasis” (ACS Med Chem Lett, 2020).
pIC50: −log10 of the molar value.

What was measured:
[1] = molecular target: T1, Interleukin-1 receptor-associated kinase 4 (Homo sapiens, UniProt Q9NWZ3); assay: Inhibition of IRAK4 (unknown origin) using FL-IPTSPITTTYFFFKKK peptide and ATP as substrate incubated for 60 mins by fluorescence based caliper assay
T1 sequence (Q9NWZ3 whole entry): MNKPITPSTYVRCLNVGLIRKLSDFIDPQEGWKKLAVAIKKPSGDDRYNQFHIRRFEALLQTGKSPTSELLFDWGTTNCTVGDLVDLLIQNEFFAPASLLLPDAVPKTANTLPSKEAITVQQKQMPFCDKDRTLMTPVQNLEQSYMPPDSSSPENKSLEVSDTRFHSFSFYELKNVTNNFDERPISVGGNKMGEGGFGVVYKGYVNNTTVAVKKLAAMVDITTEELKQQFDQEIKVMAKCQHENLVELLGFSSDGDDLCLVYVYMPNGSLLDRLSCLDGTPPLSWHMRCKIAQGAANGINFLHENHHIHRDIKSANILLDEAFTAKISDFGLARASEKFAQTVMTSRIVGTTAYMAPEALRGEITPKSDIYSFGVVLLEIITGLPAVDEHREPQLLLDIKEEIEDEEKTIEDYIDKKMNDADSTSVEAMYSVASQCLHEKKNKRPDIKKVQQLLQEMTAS

[2] = molecular target: T1, Interleukin-1 receptor-associated kinase 4; assay: Inhibition of IRAK4 in human PBMC assessed as inhibition of LTA-induced IL-6 production preincubated for 30 mins followed by LTA-stimulation and measured after 5 hrs by ELISA; type: cell-based
[3] = molecular target: T1, Interleukin-1 receptor-associated kinase 4; assay: Inhibition of IRAK4 in human whole blood assessed as inhibition of LTA-induced IL-6 production preincubated for 30 mins followed by LTA-stimulation and measured after 5 hrs by ELISA; type: tissue-based
[4] = Stability in human liver microsomes assessed as parent compound remaining; type: ADME, Microsome
[5] = Stability in mouse liver microsomes assessed as parent compound remaining measured after 10 mins; type: ADME, Microsome; conditions: read-out: Stability
Homo sapiens [6] = organism: Homo sapiens; assay: Selectivity index, ratio of IC50 for N-terminal His6-tagged human full length recombinant LCK expressed in baculovirus infected Sf21 cells to IC50 for IRAK4 (unknown origin)
Homo sapiens [7] = organism: Homo sapiens; assay: Selectivity index, ratio of IC50 for recombinant N-terminal GST-tagged human cKit (544 to end residues) expressed in baculovirus infected Sf21 cells to IC50 for IRAK4 (unknown origin)
[8] = molecular target: TRAF2 and NCK-interacting protein kinase (Homo sapiens, UniProt Q9UKE5); assay: Inhibition of human wild type partial length TNIK (D4-K311 residues) expressed in bacterial expression system
TRAF2 and NCK-interacting protein kinase, sequence (Q9UKE5 whole entry, the tested form may be a part): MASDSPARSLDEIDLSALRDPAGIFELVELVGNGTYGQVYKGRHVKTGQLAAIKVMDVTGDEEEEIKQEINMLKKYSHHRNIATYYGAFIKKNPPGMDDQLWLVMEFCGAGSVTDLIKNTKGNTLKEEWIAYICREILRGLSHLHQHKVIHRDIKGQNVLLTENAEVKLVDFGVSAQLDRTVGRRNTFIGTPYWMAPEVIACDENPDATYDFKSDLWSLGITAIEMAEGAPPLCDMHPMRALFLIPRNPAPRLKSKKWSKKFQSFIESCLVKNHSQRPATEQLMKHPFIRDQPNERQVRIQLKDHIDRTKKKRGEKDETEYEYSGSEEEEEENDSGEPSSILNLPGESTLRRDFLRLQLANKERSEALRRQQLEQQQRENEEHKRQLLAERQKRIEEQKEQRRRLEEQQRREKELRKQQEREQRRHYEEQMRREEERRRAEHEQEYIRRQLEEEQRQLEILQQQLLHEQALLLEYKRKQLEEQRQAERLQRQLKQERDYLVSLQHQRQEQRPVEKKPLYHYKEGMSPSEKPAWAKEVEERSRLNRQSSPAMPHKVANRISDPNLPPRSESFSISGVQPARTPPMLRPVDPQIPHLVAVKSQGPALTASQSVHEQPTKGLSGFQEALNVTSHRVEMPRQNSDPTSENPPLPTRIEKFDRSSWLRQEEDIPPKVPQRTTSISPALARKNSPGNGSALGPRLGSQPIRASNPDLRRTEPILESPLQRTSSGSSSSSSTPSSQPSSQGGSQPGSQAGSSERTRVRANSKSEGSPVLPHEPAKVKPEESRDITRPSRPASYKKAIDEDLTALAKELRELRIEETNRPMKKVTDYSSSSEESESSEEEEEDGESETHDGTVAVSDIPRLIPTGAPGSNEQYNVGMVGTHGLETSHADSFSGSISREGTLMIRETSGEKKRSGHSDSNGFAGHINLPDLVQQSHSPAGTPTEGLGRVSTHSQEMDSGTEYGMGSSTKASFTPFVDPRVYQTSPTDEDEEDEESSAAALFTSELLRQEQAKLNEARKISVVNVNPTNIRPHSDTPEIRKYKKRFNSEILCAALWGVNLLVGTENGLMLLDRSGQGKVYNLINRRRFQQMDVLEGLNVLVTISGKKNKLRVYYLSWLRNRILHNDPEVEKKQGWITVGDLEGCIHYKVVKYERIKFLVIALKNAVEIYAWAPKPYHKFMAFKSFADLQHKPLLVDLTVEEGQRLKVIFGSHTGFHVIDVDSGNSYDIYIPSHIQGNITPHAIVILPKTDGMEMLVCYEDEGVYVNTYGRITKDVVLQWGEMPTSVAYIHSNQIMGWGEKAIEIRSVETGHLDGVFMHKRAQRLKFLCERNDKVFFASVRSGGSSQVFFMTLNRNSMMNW

[9] = molecular target: T2, Mast/stem cell growth factor receptor Kit (Homo sapiens, UniProt P10721); assay: Inhibition of recombinant N-terminal GST-tagged human cKit (544 to end residues) expressed in baculovirus infected Sf21 cells
T2 sequence (P10721 whole entry, the tested form may be a part): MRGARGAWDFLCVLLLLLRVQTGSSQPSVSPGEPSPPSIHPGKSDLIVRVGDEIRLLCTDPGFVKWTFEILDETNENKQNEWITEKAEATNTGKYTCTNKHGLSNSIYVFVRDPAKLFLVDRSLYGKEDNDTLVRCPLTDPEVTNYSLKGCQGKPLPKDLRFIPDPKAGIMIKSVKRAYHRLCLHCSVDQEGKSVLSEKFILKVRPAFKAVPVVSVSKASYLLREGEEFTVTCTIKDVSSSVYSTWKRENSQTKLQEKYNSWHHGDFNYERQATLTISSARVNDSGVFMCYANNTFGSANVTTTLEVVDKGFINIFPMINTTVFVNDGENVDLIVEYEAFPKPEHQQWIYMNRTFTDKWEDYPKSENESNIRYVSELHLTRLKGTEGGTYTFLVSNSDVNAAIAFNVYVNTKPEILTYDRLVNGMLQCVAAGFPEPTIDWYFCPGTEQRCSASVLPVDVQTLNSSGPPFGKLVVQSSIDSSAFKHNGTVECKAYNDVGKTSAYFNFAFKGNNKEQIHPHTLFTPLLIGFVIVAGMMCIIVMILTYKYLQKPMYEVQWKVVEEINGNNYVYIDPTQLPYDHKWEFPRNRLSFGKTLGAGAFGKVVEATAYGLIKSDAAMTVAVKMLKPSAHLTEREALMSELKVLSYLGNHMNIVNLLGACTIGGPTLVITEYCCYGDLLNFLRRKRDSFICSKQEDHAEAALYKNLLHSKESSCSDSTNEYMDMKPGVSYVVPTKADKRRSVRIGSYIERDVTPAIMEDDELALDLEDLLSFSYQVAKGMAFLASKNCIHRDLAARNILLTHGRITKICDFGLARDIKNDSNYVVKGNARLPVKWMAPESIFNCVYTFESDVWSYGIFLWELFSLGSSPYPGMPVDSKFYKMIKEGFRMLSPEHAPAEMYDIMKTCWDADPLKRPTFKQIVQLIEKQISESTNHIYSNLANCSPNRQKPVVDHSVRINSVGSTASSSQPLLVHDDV

[10] = molecular target: T3, Mitogen-activated protein kinase kinase kinase 7 (Homo sapiens, UniProt O43318); assay: Inhibition of human wild type partial length TAK1 (1 to 303 residues) expressed in mammalian expression system
T3 sequence (O43318 whole entry): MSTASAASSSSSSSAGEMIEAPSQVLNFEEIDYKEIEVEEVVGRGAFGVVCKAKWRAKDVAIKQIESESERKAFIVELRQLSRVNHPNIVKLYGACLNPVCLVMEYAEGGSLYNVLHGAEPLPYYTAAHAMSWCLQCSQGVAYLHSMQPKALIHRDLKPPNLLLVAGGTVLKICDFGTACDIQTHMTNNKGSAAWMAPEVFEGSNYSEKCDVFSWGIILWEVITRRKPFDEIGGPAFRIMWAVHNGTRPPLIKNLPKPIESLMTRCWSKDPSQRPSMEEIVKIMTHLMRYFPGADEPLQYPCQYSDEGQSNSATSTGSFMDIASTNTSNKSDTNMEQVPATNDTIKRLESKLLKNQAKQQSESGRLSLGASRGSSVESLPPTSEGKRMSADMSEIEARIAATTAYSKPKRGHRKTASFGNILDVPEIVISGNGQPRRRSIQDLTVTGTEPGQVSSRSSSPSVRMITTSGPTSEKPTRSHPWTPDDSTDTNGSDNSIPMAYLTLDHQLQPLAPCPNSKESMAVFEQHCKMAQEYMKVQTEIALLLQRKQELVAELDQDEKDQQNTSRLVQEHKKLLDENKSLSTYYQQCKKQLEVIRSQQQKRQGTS

[11] = Permeability across apical to basolateral side in human Caco2 cells; conditions: Caco-2
[12] = Clearance in mouse at 2 mg/kg, iv administered as infusion or 2 mg/kg, po via gavage measured up to 24 hrs by LC-MS analysis; type: ADME, organism-based; conditions: in vivo
[13] = Volume of distribution at steady state in mouse at 2 mg/kg, iv administered as infusion or 2 mg/kg, po via gavage measured up to 24 hrs by LC-MS analysis; type: ADME, organism-based; conditions: in vivo, read-out: Vdss
[14] = Half life in mouse at 2 mg/kg, iv administered as infusion or 2 mg/kg, po via gavage measured up to 24 hrs by LC-MS analysis; type: ADME, organism-based; conditions: in vivo
[15] = AUC in mouse at 2 mg/kg, iv administered as infusion measured up to 24 hrs by LC-MS analysis; type: ADME, organism-based; parameters: time < 24 hr, dose 2 mg/kg, route intravenous; conditions: in vivo
[16] = AUC in mouse at 2 mg/kg, po via gavage measured up to 24 hrs by LC-MS analysis; type: ADME, organism-based; parameters: time < 24 hr, dose 2 mg/kg, route oral; conditions: in vivo
[17] = Oral bioavailability in mouse at 2 mg/kg administered via gavage measured up to 24 hrs by LC-MS analysis; type: ADME, organism-based; conditions: in vivo
[18] = molecular target: Mast/stem cell growth factor receptor Kit (Homo sapiens, UniProt P10721, V559D); assay: Inhibition of recombinant human partial length cKit Val559Asp mutant expressed in bacterial expression system
Mast/stem cell growth factor receptor Kit (Homo sapiens, UniProt P10721, V559D), sequence (P10721 26-976 V559D limits assumed): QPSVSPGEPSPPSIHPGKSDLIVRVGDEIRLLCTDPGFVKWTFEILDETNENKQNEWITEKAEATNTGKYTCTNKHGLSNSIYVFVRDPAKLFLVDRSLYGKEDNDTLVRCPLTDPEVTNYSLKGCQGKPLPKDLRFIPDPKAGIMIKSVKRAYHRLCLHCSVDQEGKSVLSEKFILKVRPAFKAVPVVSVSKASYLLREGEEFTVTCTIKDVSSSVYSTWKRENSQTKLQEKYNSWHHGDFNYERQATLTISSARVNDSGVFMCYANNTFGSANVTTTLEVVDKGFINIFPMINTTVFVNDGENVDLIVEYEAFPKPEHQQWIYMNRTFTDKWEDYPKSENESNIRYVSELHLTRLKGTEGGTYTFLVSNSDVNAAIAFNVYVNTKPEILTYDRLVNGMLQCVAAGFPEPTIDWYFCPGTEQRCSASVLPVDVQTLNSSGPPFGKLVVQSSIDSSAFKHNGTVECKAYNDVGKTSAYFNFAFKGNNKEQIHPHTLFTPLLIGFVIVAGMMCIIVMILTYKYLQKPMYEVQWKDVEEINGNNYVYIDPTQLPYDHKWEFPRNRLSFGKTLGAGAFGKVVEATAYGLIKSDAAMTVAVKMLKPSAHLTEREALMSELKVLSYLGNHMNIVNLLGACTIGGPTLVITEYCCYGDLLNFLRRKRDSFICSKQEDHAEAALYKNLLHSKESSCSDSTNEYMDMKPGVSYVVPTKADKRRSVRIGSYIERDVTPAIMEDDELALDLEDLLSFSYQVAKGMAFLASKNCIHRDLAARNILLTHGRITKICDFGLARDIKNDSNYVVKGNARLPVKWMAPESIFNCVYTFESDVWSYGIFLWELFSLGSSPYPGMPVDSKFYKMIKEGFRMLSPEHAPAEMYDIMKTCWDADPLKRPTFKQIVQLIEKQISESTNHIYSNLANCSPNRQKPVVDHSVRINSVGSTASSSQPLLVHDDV

[19] = molecular target: Mast/stem cell growth factor receptor Kit (Homo sapiens, UniProt P10721, V559D/T670I); assay: Inhibition of recombinant human partial length cKit Val559Asp/Thr670Ile double mutant expressed in bacterial expression system
Mast/stem cell growth factor receptor Kit (Homo sapiens, UniProt P10721, V559D/T670I), sequence (P10721 26-976 V559D/T670I limits assumed): as the sequence (P10721 26-976 V559D limits assumed) above, with T645I counted along it

[20] = molecular target: T2, Mast/stem cell growth factor receptor Kit; assay: Inhibition of cKit (unknown origin) by functional based assay

With `CC(C)Nc1cc(Nc2ccn3nccc3n2)ncc1C(=O)NC[C@@H](F)C(C)(C)O` the pIC50 [1] was 8.49, the pIC50 [2] was 7.00 and the pIC50 [3] was 6.47. The Stability [4] was 100%, the remaining at 10 min [5] was 89% and the Ratio IC50 (Homo sapiens [6]) was 130. The Ratio IC50 (Homo sapiens [7]) was 8, the pIC50 [8] was 8.10 and the pIC50 [9] was 7.62. The pIC50 [10] was 6.72, the Papp A→B [11] was 6.9 ×10⁻⁶ cm/s and the clearance [12] was 33 mL/min/kg. It also gave a Vd [13] of 3 L/kg, a half-life [14] of 120 min and an AUC at 24 h [15] of 2.4 µM·h. For the same compound, the AUC at 24 h [16] was 0.9 µM·h, the bioavailability [17] was 36% and the “inhibition (INH)” value [18] was “Active”. For the same compound, the “inhibition (INH)” value [19] was “Not Active” and the pIC50 [20] was 6.77.
